Assay results: ChEMBL document CHEMBL3507680, “University of Dundee, Gates Library screen for HepG2 cell viability”

Assay: Human HepG2 cell viability assay in 384 well format
Assay type: toxicity, cell-based
Set-up: dose 125 nL, time 70.5 hour; cytotoxicity at 70.5 h: concentration not given beside the values
Conditions: HepG2 cells, read-out: Inhibition

Cc1nn(C)c(C)c1CC(=O)N1CCC(N(C)c2cccnn2)CC1
cytotoxicity at 70.5 h: 20.4%

CCNC(=O)NC(=O)CSC(C)c1ccccc1F (stereo not drawn)
cytotoxicity at 70.5 h: -9.82%

CC(NCc1cc2cc(F)ccc2o1)c1nnc2n1CCCC2 (stereo not drawn)
cytotoxicity at 70.5 h: -5.97%

COCc1ccccc1CNc1nnc(C)c(C)c1C#N
cytotoxicity at 70.5 h: 21.2%

CCc1nccn1-c1cncc(C2CCCN2Cc2ccccc2)n1 (stereo not drawn)
cytotoxicity at 70.5 h: -5.36%

CC(C)NC(=O)Nc1ccc(CNCc2ccc(OC(F)F)cc2)cc1
cytotoxicity at 70.5 h: 13.8%

NC(=O)C(NC(=O)COC1CCCCC1)c1ccccc1 (stereo not drawn)
cytotoxicity at 70.5 h: -4.15%

Cc1noc(C)c1CN1CCN(C(=O)CCn2cncn2)CC1
cytotoxicity at 70.5 h: -6%

Cc1nn(C)c(C)c1CC(=O)N1CCC(Nc2cccnn2)CC1
cytotoxicity at 70.5 h: 35.9%

O=C1CO[C@H]2CN(Cc3c[nH]c4ccccc34)C[C@H]2N1
cytotoxicity at 70.5 h: 7.73%

Cc1cccc(NC(=O)c2[nH]nc(C(C)C)c2Br)n1
cytotoxicity at 70.5 h: 23.8%

CNC(=O)NC(=O)C(C)N1CCCc2cc(OC)ccc2C1 (stereo not drawn)
cytotoxicity at 70.5 h: -13.9%

CCNC(=O)c1ccc(NC(=O)N(C)Cc2cc(C)on2)c(C)c1
cytotoxicity at 70.5 h: -5.12%

Fc1ccc(CN2CCOCC3(CCN(Cc4nccs4)C3)C2)cc1 (stereo not drawn)
cytotoxicity at 70.5 h: -1.05%

Fc1ccc(CN2CCc3ncnc(C4CCOC4)c3CC2)cc1 (stereo not drawn)
cytotoxicity at 70.5 h: -5.46%

c1ccc(C2CN(C3CC3)CC3(CCN(Cc4ncc[nH]4)CC3)C2)cc1 (stereo not drawn)
cytotoxicity at 70.5 h: -6.48%

OC(COCc1ccc2c(c1)OCO2)CN1CC(n2cccn2)C1 (stereo not drawn)
cytotoxicity at 70.5 h: 3.04%

CC(c1nc(C2CC2)no1)N1CCN(CCS(C)(=O)=O)CC1 (stereo not drawn)
cytotoxicity at 70.5 h: -4.19%

O=C(NCCn1cnc(C2CCCC2)cc1=O)c1ccc(=O)[nH]n1
cytotoxicity at 70.5 h: -0.636%

Cc1cc(O)ncc1NS(=O)(=O)c1cccc(F)c1F
cytotoxicity at 70.5 h: -19.8%

O=C(CN1CCOC(Cn2cccn2)C1)Nc1nccs1 (stereo not drawn)
cytotoxicity at 70.5 h: -16.1%

CC(C)c1n[nH]c(C2CN(CC(=O)N(C)Cc3ccco3)CCO2)n1 (stereo not drawn)
cytotoxicity at 70.5 h: -3.93%

Cc1nccc(N2CCC(Cc3cccc(C(=O)O)c3)CC2)n1
cytotoxicity at 70.5 h: -6.88%

Nc1cc(CC2COc3ccccc3C2)ccn1 (stereo not drawn)
cytotoxicity at 70.5 h: 11.8%

CC(NC(=O)NCCCn1cncn1)c1ccc(C(F)(F)F)cc1 (stereo not drawn)
cytotoxicity at 70.5 h: -7.5%

CCc1ncc(C(=O)N2CCOCC2c2c(C)n[nH]c2C)s1 (stereo not drawn)
cytotoxicity at 70.5 h: -2.25%

CC(=O)NCCNC(=O)c1cc(C)ccc1SC1CCCC1
cytotoxicity at 70.5 h: -11.6%

CCN1CCN(C(=O)C2CCOC2)c2ccccc21 (stereo not drawn)
cytotoxicity at 70.5 h: 21%

Cc1ccc(C)c(OCC(=O)NC2CCN(c3ccccn3)CC2)c1
cytotoxicity at 70.5 h: -11.1%

CCOC(=O)CNC(=O)NCc1cccn1Cc1ccccc1C
cytotoxicity at 70.5 h: -17.6%

CCn1cc(C(=O)NCc2csc(C3CC3)n2)c(C)n1
cytotoxicity at 70.5 h: -3.62%

CCOC(C)c1nc(CN2CCN(CC(F)F)CC2)cs1 (stereo not drawn)
cytotoxicity at 70.5 h: -5.97%

COC(=O)c1cccc(NCC(=O)NC(N)=O)c1
cytotoxicity at 70.5 h: 12.1%

CC1c2ncc(CN3CCN(C)CC3)n2CCN1Cc1ccsc1 (stereo not drawn)
cytotoxicity at 70.5 h: -0.917%

NC(=O)C1CCN(C(=O)CCSCc2ccc(Cl)c(Cl)c2)CC1
cytotoxicity at 70.5 h: -7.23%

Fc1cccc(C(NCc2ncc[nH]2)c2ccccc2)c1 (stereo not drawn)
cytotoxicity at 70.5 h: -3.27%

CN1N=C(C(=O)N2CCCC(CCc3cccc(F)c3)C2)CCC1=O (stereo not drawn)
cytotoxicity at 70.5 h: -3.78%

COC(=O)C1CCN(CC2(c3ccc(C)cn3)CCNCC2)CC1
cytotoxicity at 70.5 h: -2.35%

CC(C)N1CCO[C@H]2CN(C(=O)Cc3ccsc3)C[C@H]21
cytotoxicity at 70.5 h: -2.31%

CC(Cn1cccn1)NS(=O)(=O)Cc1ccc(F)cc1 (stereo not drawn)
cytotoxicity at 70.5 h: 5.43%

COC(=O)C1CCN(C(=O)c2nnc3ccc(C)cc3n2)CC1
cytotoxicity at 70.5 h: -6.57%

Cc1ccc(-c2nc(CNCC3CN(C)CCO3)co2)cc1 (stereo not drawn)
cytotoxicity at 70.5 h: -2.95%

CCC1=N[C@@]2(CC[C@@H]3CN(Cc4ccc(Cl)cc4)C[C@@H]32)C(=O)N1C
cytotoxicity at 70.5 h: -15.2%

COCCN1CCCC2(CCN(c3nc(C)nc4ccsc34)C2)C1=O (stereo not drawn)
cytotoxicity at 70.5 h: -11.8%

COCCN1C[C@@H]2CN(Cc3ccc(F)cc3)C[C@@H]2C1=O
cytotoxicity at 70.5 h: -9.05%

CCc1nnc2n1CCN(C(=O)c1cc3cc(C)ccc3[nH]1)C2
cytotoxicity at 70.5 h: -13.6%

Cc1[nH]nc(CCC(=O)N2CCCC(OCc3cccnc3)C2)c1C (stereo not drawn)
cytotoxicity at 70.5 h: 1.55%

COc1ccc(F)cc1CN1CCCC1Cn1nc(C)nc1C (stereo not drawn)
cytotoxicity at 70.5 h: -1.67%

O=C(c1ccsc1)N1CCc2nnc(COc3cncnc3)n2CC1
cytotoxicity at 70.5 h: 26.7%

O=C(C(CNCc1cccs1)c1ccccc1)N1CCOCC1 (stereo not drawn)
cytotoxicity at 70.5 h: 7.5%

CN1CCC(Cc2cc(Nc3ccccn3)ncn2)CC1
cytotoxicity at 70.5 h: 10.1%

CC(C)C(=O)Nc1ccc(Oc2ccc3c(c2)OCO3)nc1
cytotoxicity at 70.5 h: -10.1%

CCCn1cc(NC(=O)c2cccnc2O)ccc1=O
cytotoxicity at 70.5 h: -1.07%

CC(=O)N1CC[C@H]2N(C)CC[C@@]2(C(=O)Nc2cccnc2)CC1
cytotoxicity at 70.5 h: -8.43%

COCCN(C)c1ccc(NCc2cscn2)nc1
cytotoxicity at 70.5 h: 24.9%

Cc1nn(C)c(C)c1S(=O)(=O)NCC(C)(O)c1ccc2c(c1)OCO2 (stereo not drawn)
cytotoxicity at 70.5 h: -1.59%

Cc1nn(-c2ccccn2)c(C)c1[C@@H]1C=C[C@@H](NC(=O)NC(C)C)C1
cytotoxicity at 70.5 h: 0.445%

CCc1nnc2n1CC(CNCc1nnc(C(C)(C)C)o1)CC2 (stereo not drawn)
cytotoxicity at 70.5 h: -6.78%

CC(NC(=O)NC1CCN(Cc2ccccn2)CC1)c1ccco1 (stereo not drawn)
cytotoxicity at 70.5 h: -1.3%

CCCN1CCC(c2nc3ccc(-c4ccncc4)cn3n2)CC1
cytotoxicity at 70.5 h: 19.7%

O=C(NCCCN1CCOCC1)c1cc(-c2ccc3c(c2)CCO3)n[nH]1
cytotoxicity at 70.5 h: -0.337%

Cc1ccc(CN2CC[C@H](c3nc4cccc(C(N)=O)c4[nH]3)C2)cc1
cytotoxicity at 70.5 h: 31.1%

CC(CO)CN(Cc1ccccc1)Cc1c[nH]cn1 (stereo not drawn)
cytotoxicity at 70.5 h: -15.2%

Cc1cc(CN(C)C(=O)NCC(C)N2CCc3ccccc32)no1 (stereo not drawn)
cytotoxicity at 70.5 h: -2.66%

COCCN(CCOC)C(=O)c1sc(C)nc1C
cytotoxicity at 70.5 h: -6.51%

Nc1cc2c(nn1)CCN(C(=O)Cc1ccc3c(c1)CCO3)C2
cytotoxicity at 70.5 h: 9.71%

c1ccc(CCN2CCCC(c3noc(C4CC4)n3)C2)cc1 (stereo not drawn)
cytotoxicity at 70.5 h: -5.63%

Cc1ccccc1CSc1nc(N)cc(N2CC[C@@H](O)C2)n1
cytotoxicity at 70.5 h: -6.37%

Cc1ccoc1C(=O)NC1CCN(Cc2ccccc2F)CC1
cytotoxicity at 70.5 h: 27.3%

Cc1nnn2c1COCC(CNC(=O)c1ccnnc1)C2 (stereo not drawn)
cytotoxicity at 70.5 h: -0.292%

CC(C)Cc1noc(C2CCN(C(=O)c3cccs3)CC2)n1
cytotoxicity at 70.5 h: -0.0683%

CCc1nccn1C1CCCN(C(=O)c2ccc(OC)c(OC)c2)C1 (stereo not drawn)
cytotoxicity at 70.5 h: 9.92%

CC(C)CN1CCC2(C1)CN(c1ncccn1)C2
cytotoxicity at 70.5 h: -11.9%

CS(=O)(=O)c1ccc(NCC2CCCO2)c(S(C)(=O)=O)c1 (stereo not drawn)
cytotoxicity at 70.5 h: -9.12%

C1CCC(CNC2CCCN(Cc3noc(C4CC4)n3)C2)C1 (stereo not drawn)
cytotoxicity at 70.5 h: -10.4%

O=S1(=O)CCN(CCCc2ccc(Cl)cc2)CC1
cytotoxicity at 70.5 h: -6.76%

COc1c(C)cnc(CN(C)C(=O)c2ccccc2O)c1C
cytotoxicity at 70.5 h: 0.1%

COCCN(C)C(=O)Nc1ccc(C(=O)NCCC(=O)OC)cc1
cytotoxicity at 70.5 h: -8.51%

CC(C)N(Cc1nccn1C)C(=O)c1cc(Cl)c[nH]c1=O
cytotoxicity at 70.5 h: -6.81%

CC(=O)N1CCC(c2nccnc2-c2ccc(C(=O)O)cc2)CC1
cytotoxicity at 70.5 h: 20%

COc1cccc(C(=O)N2CCCC(c3cc(C)[nH]n3)C2)c1OC (stereo not drawn)
cytotoxicity at 70.5 h: -17.6%

Cc1nc(CN(C)C2CCN(CC3CCOCC3)C2)no1 (stereo not drawn)
cytotoxicity at 70.5 h: -2.15%

CCCN(C)CC1CCN(c2ncc(Br)cn2)C1 (stereo not drawn)
cytotoxicity at 70.5 h: 2.13%
